pIC50: −log10 of the molar value. Counter-ions that a name gives are not always drawn.
Biological target: T1, human Cav2.2 (composed of the subunits α1, β3 and α2δ) (Homo sapiens, UniProt Q00975)
T1 construct: expressed in transfected cells
Experiment: FLIPR assay (TSA201 cells stably transfected with human Cav2.2 and human Kir2.3, FLUO-4 Ca2+ signal, KCl depolarization)
Type: cell-based
Conditions: 70 mM KCl depolarization, average value
Description: TSA201 cells stably transfected with human Cav2.2 (composed of the subunits α1, β3 and α2δ) and human Kir2.3 to enhance the FLIPR Ca^2+ signal were used. These cells were plated on 384-well collagen-coated plates (BD Bioscience, Franklin Lakes, N.J.) at a density of 2×10^4 cells/well one day prior to the FLIPR assay. […] Culture media is removed and replaced with 25 μl of the FLUO-4 dye solution and incubated for one hour at room temperature. The cell plate is then placed on the FLIPR where the dye is aspirated off and replaced with 25 μl of HBSS (Invitrogen, Carlsbad, Calif.). The HBSS is then aspirated and replaced with […] of compound which is diluted in HBSS with 1% DMSO. Compounds are incubated on the cells for 15 minutes. The cells are then depolarized with 25 μl of 140 mM KCl solution (also containing 2 mM CaCl2 and 10 mM HEPES). The final concentration of KCl on the cells is 70 mM.

T1 sequence (Q00975 whole entry): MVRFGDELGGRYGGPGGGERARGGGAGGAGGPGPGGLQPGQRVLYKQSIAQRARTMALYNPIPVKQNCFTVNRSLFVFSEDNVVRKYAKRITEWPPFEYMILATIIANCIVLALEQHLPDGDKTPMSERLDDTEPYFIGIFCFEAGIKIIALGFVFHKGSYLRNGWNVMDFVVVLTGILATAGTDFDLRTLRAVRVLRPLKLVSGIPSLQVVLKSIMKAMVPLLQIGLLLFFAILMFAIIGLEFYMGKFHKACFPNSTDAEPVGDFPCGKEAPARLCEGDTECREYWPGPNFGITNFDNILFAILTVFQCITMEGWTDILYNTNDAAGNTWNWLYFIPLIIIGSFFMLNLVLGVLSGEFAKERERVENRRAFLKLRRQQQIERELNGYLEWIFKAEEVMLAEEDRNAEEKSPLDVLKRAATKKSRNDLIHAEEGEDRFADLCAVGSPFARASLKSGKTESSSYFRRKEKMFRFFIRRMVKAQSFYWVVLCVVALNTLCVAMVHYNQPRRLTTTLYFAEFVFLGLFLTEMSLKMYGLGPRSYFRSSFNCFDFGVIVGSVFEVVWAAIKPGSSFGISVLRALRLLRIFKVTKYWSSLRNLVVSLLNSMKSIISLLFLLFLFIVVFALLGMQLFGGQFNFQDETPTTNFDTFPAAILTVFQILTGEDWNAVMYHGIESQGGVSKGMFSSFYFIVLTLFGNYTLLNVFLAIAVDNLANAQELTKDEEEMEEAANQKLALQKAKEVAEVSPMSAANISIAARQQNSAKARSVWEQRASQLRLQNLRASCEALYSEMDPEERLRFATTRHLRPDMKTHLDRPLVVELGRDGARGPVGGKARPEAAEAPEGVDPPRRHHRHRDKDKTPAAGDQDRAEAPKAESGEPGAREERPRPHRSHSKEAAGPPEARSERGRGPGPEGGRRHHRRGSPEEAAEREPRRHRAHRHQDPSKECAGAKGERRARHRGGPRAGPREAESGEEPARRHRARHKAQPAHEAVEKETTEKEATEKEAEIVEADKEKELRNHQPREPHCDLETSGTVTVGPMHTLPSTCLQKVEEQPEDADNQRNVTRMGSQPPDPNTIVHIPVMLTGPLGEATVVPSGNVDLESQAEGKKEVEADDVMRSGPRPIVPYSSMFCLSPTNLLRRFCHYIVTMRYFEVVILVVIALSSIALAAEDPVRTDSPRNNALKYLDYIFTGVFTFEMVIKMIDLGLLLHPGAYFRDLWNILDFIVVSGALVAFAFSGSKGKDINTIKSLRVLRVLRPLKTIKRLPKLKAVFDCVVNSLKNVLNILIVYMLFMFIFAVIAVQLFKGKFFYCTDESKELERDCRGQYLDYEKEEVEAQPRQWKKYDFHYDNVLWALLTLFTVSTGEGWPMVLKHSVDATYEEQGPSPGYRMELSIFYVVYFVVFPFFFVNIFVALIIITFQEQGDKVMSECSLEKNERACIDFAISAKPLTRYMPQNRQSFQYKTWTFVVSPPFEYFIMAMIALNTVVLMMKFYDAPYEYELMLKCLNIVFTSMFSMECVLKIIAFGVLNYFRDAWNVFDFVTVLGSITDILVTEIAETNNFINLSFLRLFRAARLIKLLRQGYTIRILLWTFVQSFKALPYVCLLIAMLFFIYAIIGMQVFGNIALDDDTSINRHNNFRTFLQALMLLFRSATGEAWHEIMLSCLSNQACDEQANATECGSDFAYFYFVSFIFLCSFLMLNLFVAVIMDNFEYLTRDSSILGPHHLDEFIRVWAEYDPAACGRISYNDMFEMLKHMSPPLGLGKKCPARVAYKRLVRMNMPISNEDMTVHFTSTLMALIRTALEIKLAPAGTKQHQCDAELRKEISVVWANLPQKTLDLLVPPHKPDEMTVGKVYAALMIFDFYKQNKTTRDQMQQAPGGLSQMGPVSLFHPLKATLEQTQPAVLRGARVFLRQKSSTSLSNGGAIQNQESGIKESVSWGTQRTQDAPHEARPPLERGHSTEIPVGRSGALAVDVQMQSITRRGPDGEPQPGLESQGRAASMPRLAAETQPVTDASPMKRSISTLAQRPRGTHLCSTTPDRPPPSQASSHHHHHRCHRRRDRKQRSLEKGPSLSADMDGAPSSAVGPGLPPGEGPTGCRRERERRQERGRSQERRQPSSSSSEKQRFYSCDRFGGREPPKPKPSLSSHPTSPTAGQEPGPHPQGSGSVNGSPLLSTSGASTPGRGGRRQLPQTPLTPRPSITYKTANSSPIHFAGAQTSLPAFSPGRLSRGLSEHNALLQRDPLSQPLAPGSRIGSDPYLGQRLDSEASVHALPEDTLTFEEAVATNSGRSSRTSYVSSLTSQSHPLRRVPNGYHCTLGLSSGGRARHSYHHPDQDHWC
T1 sequence (P54284 whole entry partner): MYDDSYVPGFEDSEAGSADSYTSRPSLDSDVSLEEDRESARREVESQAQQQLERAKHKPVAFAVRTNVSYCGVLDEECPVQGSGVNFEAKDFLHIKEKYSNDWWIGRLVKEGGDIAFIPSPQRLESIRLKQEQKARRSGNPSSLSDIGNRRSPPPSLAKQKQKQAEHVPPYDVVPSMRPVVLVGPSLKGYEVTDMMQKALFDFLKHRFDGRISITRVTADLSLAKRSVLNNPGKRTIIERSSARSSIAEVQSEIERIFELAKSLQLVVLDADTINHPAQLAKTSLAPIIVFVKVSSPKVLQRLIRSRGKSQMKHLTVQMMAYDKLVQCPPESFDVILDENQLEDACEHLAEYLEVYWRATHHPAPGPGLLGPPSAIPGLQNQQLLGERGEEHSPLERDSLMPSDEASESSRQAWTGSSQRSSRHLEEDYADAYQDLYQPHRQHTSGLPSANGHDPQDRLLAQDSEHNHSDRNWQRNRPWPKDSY
T1 sequence (P54289 25-946 partner limits assumed): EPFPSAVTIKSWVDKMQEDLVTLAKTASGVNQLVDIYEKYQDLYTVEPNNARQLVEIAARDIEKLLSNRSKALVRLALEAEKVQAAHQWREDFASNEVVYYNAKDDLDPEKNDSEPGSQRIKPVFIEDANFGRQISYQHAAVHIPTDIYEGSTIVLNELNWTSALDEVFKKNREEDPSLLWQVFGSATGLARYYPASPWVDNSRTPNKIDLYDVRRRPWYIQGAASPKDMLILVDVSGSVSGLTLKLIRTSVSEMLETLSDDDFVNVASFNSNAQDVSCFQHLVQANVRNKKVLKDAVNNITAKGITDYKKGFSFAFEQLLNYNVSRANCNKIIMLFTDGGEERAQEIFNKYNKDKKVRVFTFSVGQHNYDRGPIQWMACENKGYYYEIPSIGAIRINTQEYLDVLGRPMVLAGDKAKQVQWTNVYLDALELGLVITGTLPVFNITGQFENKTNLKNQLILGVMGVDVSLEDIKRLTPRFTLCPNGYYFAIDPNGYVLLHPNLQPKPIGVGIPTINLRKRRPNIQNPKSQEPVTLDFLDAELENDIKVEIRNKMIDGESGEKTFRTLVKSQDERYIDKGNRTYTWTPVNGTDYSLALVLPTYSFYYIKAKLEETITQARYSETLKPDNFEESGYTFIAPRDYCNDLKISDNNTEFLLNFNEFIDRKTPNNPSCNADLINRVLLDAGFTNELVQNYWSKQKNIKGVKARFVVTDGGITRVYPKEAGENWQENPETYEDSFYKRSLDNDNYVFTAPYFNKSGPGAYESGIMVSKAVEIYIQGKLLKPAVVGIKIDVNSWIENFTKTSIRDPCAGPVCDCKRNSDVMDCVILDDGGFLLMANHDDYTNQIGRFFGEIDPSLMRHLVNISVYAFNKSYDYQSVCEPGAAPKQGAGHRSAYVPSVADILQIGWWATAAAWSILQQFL
T1 sequence (P54289 947-1103 partner limits assumed): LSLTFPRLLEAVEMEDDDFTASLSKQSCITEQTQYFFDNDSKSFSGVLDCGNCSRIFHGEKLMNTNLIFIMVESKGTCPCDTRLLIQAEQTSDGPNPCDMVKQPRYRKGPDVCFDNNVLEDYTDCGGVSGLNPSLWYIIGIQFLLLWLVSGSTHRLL

| Structure (SMILES) | pIC50 |
| --- | --- |
| CC(C)(C)C(=O)N(Cc1csc(N2CCCCC2)n1)c1ccc(F)cc1 [Compound 134, N-(4-fluorophenyl)-2,2-dimethyl-N-[(2-piperidin-1-yl-1,3-thiazol-4-yl)methyl]propanamide] | 5.36 |
| CCC(=O)N(CCc1cccnc1)c1ccc(CN(C(=O)C(C)(C)C)c2ccc(F)cc2)cn1 [Compound 135] | 5.87 |
| CC(C)(C)C(=O)N(Cc1csc(N2CCOCC2)n1)c1ccc(F)cc1 [Compound 136, N-(4-fluorophenyl)-2,2-dimethyl-N-[(2-morpholin-4-yl-1,3-thiazol-4-yl)methyl]propanamide] | 5.25 |
| O=C(C1CCCCC1)N(Cc1csc(N2CCOCC2)n1)c1ccc(F)cc1 [Compound 137, N-(4-fluorophenyl)-N-[(2-morpholin-4-yl-1,3-thiazol-4-yl)methyl]cyclohexanecarboxamide] | 4.95 |
| CCC(C)(C)C(=O)N(Cc1csc(N2CCOCC2)n1)c1ccc(F)cc1 [Compound 138, N-(4-fluorophenyl)-2,2-dimethyl-N-[(2-morpholin-4-yl-1,3-thiazol-4-yl)methyl]butanamide] | 4.84 |
| CCN(c1ccc(CN(C(=O)C(C)(C)C)c2ccc(F)cc2)cn1)C1CC1 [Compound 139, N-({6-[cyclopropyl(ethyl)amino]pyridin-3-yl}methyl)-N-(4-fluorophenyl)-2,2-dimethylpropanamide] | 5.89 |
| CC(C)(C)C(=O)N(Cc1csc(N2CCCC2)n1)c1ccc(F)cc1 [Compound 140, N-(4-fluorophenyl)-2,2-dimethyl-N-[(2-pyrrolidin-1-yl-1,3-thiazol-4-yl)methyl]propanamide] | 5.36 |
| CN(c1ccc(F)cc1)c1nc(CN(C(=O)C(C)(C)C)c2ccc(F)cc2)cs1 [Compound 141, N-(4-fluorophenyl)-N-({2-[(4-fluorophenyl)(methyl)amino]-1,3-thiazol-4-yl}methyl)-2,2-dimethylpropanamide] | 5.12 |
| COc1ccc(N(C)c2nc(CN(C(=O)C(C)(C)C)c3ccc(F)cc3)cs2)cc1 [Compound 142, N-(4-fluroophenyl)-N-({2-[(4-methoxyphenyl)(methyl)amino]-1,3-thiazol-4-yl}methyl)-2,2-dimethylpropanamide] | 5.17 |
| CCN(c1nc(CN(C(=O)C(C)(C)C)c2ccc(F)cc2)cs1)C1CC1 [Compound 143, N-({2-[cyclopropyl(ethyl)amino]-1,3-thiazol-4-yl}methyl)-N-(4-fluorophenyl)-2,2-dimethylpropanamide] | 5.42 |
| CC(C)(C)C(=O)N(Cc1csc(Br)n1)c1ccc(F)cc1 [Compound 144, N-[(2-bromo-1,3-thiazol-4-yl)methyl]-N-(4-fluorophenyl)-2,2-dimethylpropanamide] | 5.49 |
| CC1CN(c2nc(CN(C(=O)C(C)(C)C)c3ccc(F)cc3)cs2)CC(C)N1 (stereo not drawn) [Compound 145, N-{[2-(3,5-dimethylpiperazin-1-yl)-1,3-thiazol-4-yl]methyl}-N-(4-fluorophenyl)-2,2-dimethylpropanamide] | 4.73 |
| CC(C)(C)OC(=O)N1CCN(c2nc(CN(C(=O)C(C)(C)C)c3ccc(F)cc3)cs2)CC1 [Compound 146, tert-butyl 4-(4-{[(2,2-dimethylpropanoyl)(4-fluorophenyl)amino]methyl}--1,3-thiazol-2-yl)piperazine-1-carboxylate] | 4.45 |
| CC(C)(C)C(=O)N(Cc1csc(N2CCN(c3ccccc3)CC2)n1)c1ccc(F)cc1 [Compound 147, N-(4-fluorophenyl)-2,2-dimethyl-N-{[2-(4-phenylpiperazin-1-yl)-1,3-thiazol-4-yl]methyl}propanamide] | 5.55 |
| CC(C)N1CCN(c2nc(CN(C(=O)C(C)(C)C)c3ccc(F)cc3)cs2)CC1 [Compound 148, N-(4-fluroophenyl)-N-{[2-(4-isopropylpiperazin-1-yl)-1,3-thiazol-4-yl]methyl}-2,2-dimethylpropanamide] | 4.81 |

Results, then the compound that gave them:

| pIC50 | Structure (SMILES) |
| --- | --- |
| 5.09 | CC(C)(C)C(=O)N(Cc1csc(N2CCN(c3ccccn3)CC2)n1)c1ccc(F)cc1 [Compound 149, N-(4-fluorophenyl)-2,2-dimethyl-N-{[2-(4-pyridin-2-ylpiperazin-1-yl)--1,3-thiazol-4-yl]methyl}propanamide] |
| 4.98 | CN1CCN(c2nc(CN(C(=O)C(C)(C)C)c3ccc(F)cc3)cs2)CC1 [Compound 150, N-(4-fluorophenyl)-2,2-dimethyl-N-{[2-(4-methylpiperazin-1-yl)-1,3-thiazol-4-yl]methyl}propanamide] |
| 5.40 | CC(C)(C)C(=O)N(Cc1csc(N2CCN(c3ncccn3)CC2)n1)c1ccc(F)cc1 [Compound 151, N-(4-fluorophenyl)-2,2-dimethyl-N-{[2-(4-pyrimidin-2-ylpiperazin-1-yl)-1,3-thiazol-4-yl]methyl}propanamide dihydrochloride] |
| 5.08 | CC(C)(C)C(=O)N(Cc1csc(N2CCNCC2)n1)c1ccc(F)cc1 [Compound 152, N-(4-fluorophenyl)-2,2-dimethyl-N-[(2-piperazin-1-yl-1,3-thiazol-4-yl)methyl]propanamide] |
| 4.89 | CN(C)CCNc1nc(CN(C(=O)C(C)(C)C)c2ccc(F)cc2)cs1 [Compound 153, N-[(2-{[2-(dimethylamino)ethyl]amino}-1,3-thiazol-4-yl)methyl]-N-(4-fluorophenyl)-2,2-dimethylpropanamide] |
| 5.05 | CN(C)CCCNc1nc(CN(C(=O)C(C)(C)C)c2ccc(F)cc2)cs1 [Compound 154] |
| 5.07 | CN(C)CCCCNc1nc(CN(C(=O)C(C)(C)C)c2ccc(F)cc2)cs1 [Compound 155, N-[(2-{[4-(dimethylamino)butyl]amino}-1,3-thiazol-4-yl)methyl]-N-(4-fluorophenyl)-2,2-dimethylpropanamide] |
| 5.52 | CC(C)(C)C(=O)N(Cc1csc(NC2CCCC2)n1)c1ccc(F)cc1 [Compound 156, N-{[2-(cyclopentylamino)-1,3-thiazol-4-yl]methyl}-N-(4-fluorophenyl)-2,2-dimethylpropanamide] |
| 5.06 | CC(C)(C)C(=O)N(Cc1csc(NC2CCCCC2)n1)c1ccc(F)cc1 [Compound 157, N-{[2-(cyclohexylamino)-1,3-thiazol-4-yl]methyl}-N-(4-fluorophenyl)-2,2-dimethylpropanamide] |
| 5.03 | CC(C)(C)C(=O)N(Cc1csc(Nc2ccc(F)cc2)n1)c1ccc(F)cc1 [Compound 158, N-(4-fluroophenyl)-N-({2-[(4-fluorophenyl)amino]-1,3-thiazol-4-yl}methyl)-2,2-dimethylpropanamide] |
| 4.99 | CC(C)(C)C(=O)N(Cc1csc(Nc2ccccc2F)n1)c1ccc(F)cc1 [Compound 159, N-(4-fluorophenyl)-N-({2-[(2-fluorophenyl)amino]-1,3-thiazol-4-yl}methyl)-2,2-dimethylpropanamide] |
| 5.21 | CNc1nc(CN(C(=O)C(C)(C)C)c2ccc(F)cc2)cs1 [Compound 160, N-(4-fluorophenyl)-2,2-dimethyl-N-{[2-(methylamino)-1,3-thiazol-4-yl]methyl}propanamide] |
| 5.57 | CC(C)CNc1nc(CN(C(=O)C(C)(C)C)c2ccc(F)cc2)cs1 [Compound 161, N-(4-fluorophenyl)-N-{[2-(isobutylamino)-1,3-thiazol-4-yl]methyl}-2,2-dimethylpropanamide] |
| 4.96 | CC(C)(C)C(=O)N(Cc1csc(N2C[C@@H]3C[C@H]2CN3)n1)c1ccc(F)cc1 [Compound 162, N-({2-[(1S,4S)-2,5-diazabicycl[2.2.1]hept-2-yl]-1,3-thiazol-4-yl}methyl)-N-(4-fluorophenyl)-2,2-dimethylpropanamide] |
| 5.11 | CCCNc1nc(CN(C(=O)C(C)(C)C)c2ccc(F)cc2)cs1 [Compound 163, N-(4-fluorophenyl)-2,2-dimethyl-N-{[2-(propylamino)-1,3-thiazol-4-yl]methyl}propanamide] |
| 5.32 | CN(C)c1nc(CN(C(=O)C(C)(C)C)c2ccc(F)cc2)cs1 [Compound 164, N-{[2-(dimethylamino)-1,3-thiazol-4-yl]methyl}-N-(4-fluorophenyl)-2,2-dimethylpropanamide] |
| 5.44 | CC(C)(C)C(=O)N(Cc1csc(N2CCN(CCc3ccccc3)CC2)n1)c1ccc(F)cc1 [Compound 165, N-(4-fluroophenyl)-2,2-dimethyl-N-({2-[4-(2-phenylethyl)piperazin-1-yl]--1,3-thiazol-4-yl}methyl)propanamide] |
| 4.70 | CN(C)CCCN1CCN(c2nc(CN(C(=O)C(C)(C)C)c3ccc(F)cc3)cs2)CC1 [Compound 166, N-[(2-{4-[3-(dimethylamino)propyl]piperazin-1-yl}-1,3-thiazol-4-yl)methyl]-N-(4-fluorophenyl)-2,2-dimethylpropanamide] |
| 4.87 | CC(C)(C)C(=O)N(Cc1csc(N2CCN(C(c3ccccc3)c3ccccc3)CC2)n1)c1ccc(F)cc1 [Compound 167, N-({2-[4-(diphenylmethyl)piperazin-1-yl]-1,3-thiazol-4-yl}methyl)-N-(4-fluroophenyl)-2,2-dimethylpropanamide] |
| 5.29 | CCN(c1nc(CN(C(=O)C(C)(C)C)c2ccccc2)cs1)C1CC1 [Compound 168, N-({2-[cyclopropyl(ethyl)amino]-1,3-thiazol-4-yl}methyl)-2,2-dimethyl-N-phenylpropanamide] |
| 5.24 | CCN(c1nc(CN(C(=O)C(C)(C)C)c2ccccc2F)cs1)C1CC1 [Compound 169, N-({2-[cyclopropyl(ethyl)amino]-1,3-thiazol-4-yl}methyl)-N-(2-fluorophenyl)-2,2-dimethylpropanamide] |
